Data taken from PubChem BioAssay (NCI).
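GI50 is the concentration that inhibits growth by half. TGI denotes the concentration required for complete inhibition of growth.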

Legend:
Experiment in all cases: NCI tumour cell line growth inhibition, 384-well format
A498 renal = test system: A498 renal
A549 NSCLC = test system: A549 NSCLC
ACHN renal = test system: ACHN renal
BT-549 breast = test system: BT-549 breast
CAKI-1 renal = test system: CAKI-1 renal
COLO 205 colon = test system: COLO 205 colon
DU-145 prostate = test system: DU-145 prostate
EKVX NSCLC = test system: EKVX NSCLC
HCC-2998 colon = test system: HCC-2998 colon
HCT-116 colon = test system: HCT-116 colon
HCT-15 colon = test system: HCT-15 colon
HL-60(TB) leukemia = test system: HL-60(TB) leukemia
HOP-62 NSCLC = test system: HOP-62 NSCLC
HOP-92 NSCLC = test system: HOP-92 NSCLC
HS 578T breast = test system: HS 578T breast
HT29 colon = test system: HT29 colon
IGROV1 ovarian = test system: IGROV1 ovarian
KM12 colon = test system: KM12 colon
LOX IMVI melanoma = test system: LOX IMVI melanoma
M14 melanoma = test system: M14 melanoma
MALME-3M melanoma = test system: MALME-3M melanoma
MCF7 breast = test system: MCF7 breast
MDA-MB-231 breast = test system: MDA-MB-231 breast
MDA-MB-435 melanoma = test system: MDA-MB-435 melanoma
MDA-MB-468 breast = test system: MDA-MB-468 breast
MOLT-4 leukemia = test system: MOLT-4 leukemia
NCI-H226 lung = test system: NCI-H226 lung
NCI-H23 lung = test system: NCI-H23 lung
NCI-H322M lung = test system: NCI-H322M lung
NCI-H460 NSCLC = test system: NCI-H460 NSCLC
NCI-H522 lung = test system: NCI-H522 lung
NCI/ADR-RES ovarian = test system: NCI/ADR-RES ovarian
OVCAR-3 ovarian = test system: OVCAR-3 ovarian
OVCAR-4 ovarian = test system: OVCAR-4 ovarian
OVCAR-5 ovarian = test system: OVCAR-5 ovarian
OVCAR-8 ovarian = test system: OVCAR-8 ovarian
PC-3 prostate = test system: PC-3 prostate
RPMI-8226 leukemia = test system: RPMI-8226 leukemia
RXF 393 renal = test system: RXF 393 renal
SF-268 CNS = test system: SF-268 CNS
SF-295 CNS = test system: SF-295 CNS
SF-539 CNS = test system: SF-539 CNS
SK-MEL-28 melanoma = test system: SK-MEL-28 melanoma
SK-MEL-5 melanoma = test system: SK-MEL-5 melanoma
SK-OV-3 ovarian = test system: SK-OV-3 ovarian
SN12C renal = test system: SN12C renal
SNB-19 CNS = test system: SNB-19 CNS
SNB-75 CNS = test system: SNB-75 CNS
SR leukemia = test system: SR leukemia
T-47D breast = test system: T-47D breast
TK-10 renal = test system: TK-10 renal
U251 glioblastoma = test system: U251 glioblastoma
UACC-257 melanoma = test system: UACC-257 melanoma
UACC-62 melanoma = test system: UACC-62 melanoma

Question: What does the source list for `COC1CCN(C(=O)c2cc(Cc3n[nH]c(=O)c4ccccc34)ccc2F)CC1`?
Answer: GI50 (A498 renal): > 100 µM; TGI (A498 renal): > 100 µM; GI50 (A549 NSCLC): > 100 µM; TGI (A549 NSCLC): > 100 µM; GI50 (ACHN renal): > 100 µM; TGI (ACHN renal): > 100 µM; GI50 (BT-549 breast): 84.6 µM; TGI (BT-549 breast): > 100 µM; GI50 (CAKI-1 renal): > 100 µM; TGI (CAKI-1 renal): > 100 µM; GI50 (COLO 205 colon): > 100 µM; TGI (COLO 205 colon): > 100 µM; GI50 (DU-145 prostate): 68.2 µM; TGI (DU-145 prostate): > 100 µM; GI50 (EKVX NSCLC): > 100 µM; TGI (EKVX NSCLC): > 100 µM; GI50 (HCC-2998 colon): 63.7 µM; TGI (HCC-2998 colon): > 100 µM; GI50 (HCT-116 colon): 28.7 µM; TGI (HCT-116 colon): > 100 µM; GI50 (HCT-15 colon): > 100 µM; TGI (HCT-15 colon): > 100 µM; GI50 (HL-60(TB) leukemia): 10.4 µM; TGI (HL-60(TB) leukemia): 29.7 µM; GI50 (HOP-62 NSCLC): 10.4 µM; TGI (HOP-62 NSCLC): 49.8 µM; GI50 (HOP-92 NSCLC): > 100 µM; TGI (HOP-92 NSCLC): > 100 µM; GI50 (HS 578T breast): > 100 µM; TGI (HS 578T breast): > 100 µM; GI50 (HT29 colon): > 100 µM; TGI (HT29 colon): > 100 µM; GI50 (IGROV1 ovarian): > 100 µM; TGI (IGROV1 ovarian): > 100 µM; GI50 (KM12 colon): > 100 µM; TGI (KM12 colon): > 100 µM; GI50 (LOX IMVI melanoma): 33.5 µM; TGI (LOX IMVI melanoma): > 100 µM; GI50 (M14 melanoma): 74.7 µM; TGI (M14 melanoma): > 100 µM; GI50 (MALME-3M melanoma): > 100 µM; TGI (MALME-3M melanoma): > 100 µM; GI50 (MCF7 breast): 68.1 µM; TGI (MCF7 breast): > 100 µM; GI50 (MDA-MB-231 breast): 81 µM; TGI (MDA-MB-231 breast): > 100 µM; GI50 (MDA-MB-435 melanoma): > 100 µM; TGI (MDA-MB-435 melanoma): > 100 µM; GI50 (MDA-MB-468 breast): 9.62 µM; TGI (MDA-MB-468 breast): 33.3 µM; GI50 (MOLT-4 leukemia): 4.06 µM; TGI (MOLT-4 leukemia): 14.2 µM; GI50 (NCI-H226 lung): > 100 µM; TGI (NCI-H226 lung): > 100 µM; GI50 (NCI-H23 lung): 59.7 µM; TGI (NCI-H23 lung): > 100 µM; GI50 (NCI-H322M lung): > 100 µM; TGI (NCI-H322M lung): > 100 µM; GI50 (NCI-H460 NSCLC): 5.93 µM; TGI (NCI-H460 NSCLC): 56.1 µM; GI50 (NCI-H522 lung): > 100 µM; TGI (NCI-H522 lung): > 100 µM; GI50 (NCI/ADR-RES ovarian): 34.9 µM; TGI (NCI/ADR-RES ovarian): > 100 µM; GI50 (OVCAR-3 ovarian): 7.79 µM; TGI (OVCAR-3 ovarian): > 100 µM; GI50 (OVCAR-4 ovarian): > 100 µM; TGI (OVCAR-4 ovarian): > 100 µM; GI50 (OVCAR-5 ovarian): > 100 µM; TGI (OVCAR-5 ovarian): > 100 µM; GI50 (OVCAR-8 ovarian): 22.6 µM; TGI (OVCAR-8 ovarian): > 100 µM; GI50 (PC-3 prostate): > 100 µM; TGI (PC-3 prostate): > 100 µM; GI50 (RPMI-8226 leukemia): 46.6 µM; TGI (RPMI-8226 leukemia): > 100 µM; GI50 (RXF 393 renal): > 100 µM; TGI (RXF 393 renal): > 100 µM; GI50 (SF-268 CNS): 44.5 µM; TGI (SF-268 CNS): > 100 µM; GI50 (SF-295 CNS): 11.4 µM; TGI (SF-295 CNS): > 100 µM; GI50 (SF-539 CNS): 27.3 µM; TGI (SF-539 CNS): > 100 µM; GI50 (SK-MEL-28 melanoma): > 100 µM; TGI (SK-MEL-28 melanoma): > 100 µM; GI50 (SK-MEL-5 melanoma): 74.2 µM; TGI (SK-MEL-5 melanoma): > 100 µM; GI50 (SK-OV-3 ovarian): 32.3 µM; TGI (SK-OV-3 ovarian): > 100 µM; GI50 (SN12C renal): 46.1 µM; TGI (SN12C renal): > 100 µM; GI50 (SNB-19 CNS): 46.9 µM; TGI (SNB-19 CNS): > 100 µM; GI50 (SNB-75 CNS): 94.7 µM; TGI (SNB-75 CNS): > 100 µM; GI50 (SR leukemia): 364 nM; TGI (SR leukemia): 2450 nM; GI50 (T-47D breast): > 100 µM; TGI (T-47D breast): > 100 µM; GI50 (TK-10 renal): > 100 µM; TGI (TK-10 renal): > 100 µM; GI50 (U251 glioblastoma): 25.8 µM; TGI (U251 glioblastoma): > 100 µM; GI50 (UACC-257 melanoma): > 100 µM; TGI (UACC-257 melanoma): > 100 µM; GI50 (UACC-62 melanoma): > 100 µM; TGI (UACC-62 melanoma): > 100 µM
